# Assay results reported in patent publication US12606528B2, “Methods and materials for inhibiting NF-kB activity” (University of Pittsburgh - Of the Commonwealth System of …, priority 2019, dated 2026).
# Tested on: NF-κB
# Experiment: NF-κB assay: THP1-NF-κB-LUC cells, LPS-stimulated secreted luciferase
# Assay type: cell-based
# Conditions: THP1-NF-κB-LUC cells, LPS-stimulated; read-out: IC50 (NF-κB assay)
# Experimental: FIG. 1 contains line plots showing NF-κB activity of exemplified compounds. 25k THP1-NF-κB-LUC cells were dispensed into 384 well plate (per well). Cells were treated with compounds (2 μM and 0.2 μM) for 2 hours before addition of LPS (10 ng/mL) for 18 hours. Secreted luciferase activity were measured using quant-luc reagents (1 bag of luc reagent dilute to 40 mL, use 10 μL per well). Data were normalized to vehicle control and graphed. Structures of selected exemplified compounds are shown.
# FIG. 2 contains heat charts showing NF-κB activity of exemplified compounds as a function of concentration. 25k THP1-NF-κB-LUC cells were dispensed into 384 well plate (per well). Cells were treated with compounds (with serial dilution) for 2 hours before addition of LPS (10 ng/ml) for 18 hours. Secreted luciferase activity were measured using quant-luc reagents (1 bag of luc reagent dilute to 40 mL, use 10 μL per well). Structures of selected exemplified compounds are shown.
# 25k THP1-NF-κB-LUC cells were dispensed into 384 well plate (per well). Cells were treated with compounds with various concentrations for 2 hours before addition of LPS (10 ng/mL) for 18 hours. Secreted luciferase activity were measured using quant-luc reagents (1 bag of luc reagent dilute to 40 mL, use 10 μL per well). Data were normalized to vehicle control and graphed. Compound IC50 towards inhibiting NF-κB were determined through Prism. Similarly, 10k human PBMCs cells were cultured in 384 well plate (per well). Cells were treated with compounds with various concentrations for 2 hours before addition of LPS (10 ng/ml) for 18 hours, and supernatants were collected and assayed for TNF ELISA. Compound IC50 towards inhibiting TNF release were determined through Prism. • Activity: “+”>10 μM, “++”>1 μM and <10 μM, “+++”>0.1 μM and <1 μM, “++++”<0.1 μM.
row,Structure (SMILES),IC50
1,CCC(C)S(=O)(=O)c1oc(-c2ccc(F)cc2)nc1S(=O)(=O)c1ccc(C)cc1 (stereo not shown) [BC18521],< 0.1 µM
2,CS(=O)(=O)c1oc(-c2ccc(F)cc2)nc1S(=O)(=O)c1ccc(Cl)cc1 [BC18522],< 0.1 µM
3,O=S(=O)(Cc1ccc(F)cc1)c1oc(-c2ccccc2)nc1S(=O)(=O)c1ccccc1 [BC18523],> 10 µM
4,CCS(=O)(=O)c1oc(-c2ccccc2)nc1S(=O)(=O)c1ccc(Cl)cc1 [BC18524],1 to 10 µM
5,CC(=O)CSc1oc(-c2ccc(C)cc2)nc1S(=O)(=O)c1ccccc1 [BC18525],> 10 µM
6,CCSc1oc(-c2ccc(F)cc2)nc1S(=O)(=O)c1ccccc1 [BC18526],1 to 10 µM
7,CC(C)CSc1oc(-c2ccc(F)cc2)nc1S(=O)(=O)c1ccccc1 [BC18527],1 to 10 µM
8,Cc1ccc(S(=O)(=O)c2nc(-c3ccc(F)cc3)oc2SCC(C)C)cc1 [BC18528],> 10 µM
9,Cc1ccc(S(=O)(=O)c2nc(-c3ccc(F)cc3)oc2SCC(C)C)cc1 [BC18529],1 to 10 µM
10,O=C(CSc1oc(-c2ccc(F)cc2)nc1S(=O)(=O)c1ccc(Cl)cc1)c1ccc(F)cc1 [BC18530],1 to 10 µM
11,CC(C)S(=O)(=O)c1oc(-c2ccc(F)cc2)nc1S(=O)(=O)c1ccccc1 [BC18531],< 0.1 µM
12,CCS(=O)(=O)c1oc(-c2ccc(F)cc2)nc1S(=O)(=O)c1ccc(F)cc1 [BC18532],< 0.1 µM
13,CCCS(=O)(=O)c1oc(-c2ccc(F)cc2)nc1S(=O)(=O)c1ccc(Cl)cc1 [BC18533],< 0.1 µM
14,O=S(=O)(c1ccccc1)c1nc(-c2ccccc2)oc1SCc1ccccc1F [BC18534],> 10 µM
15,CCCSc1oc(-c2ccccc2)nc1S(=O)(=O)c1ccc(Cl)cc1 [BC18535],1 to 10 µM
16,CSc1oc(-c2ccc(C)cc2)nc1S(=O)(=O)c1ccc(Cl)cc1 [BC18536],> 10 µM
17,CCCSc1oc(-c2ccc(F)cc2)nc1S(=O)(=O)c1ccccc1 [BC18537],1 to 10 µM
18,CCCCCSc1oc(-c2ccc(F)cc2)nc1S(=O)(=O)c1ccccc1 [BC18538],> 10 µM
19,NC(=O)CSc1oc(-c2ccc(F)cc2)nc1S(=O)(=O)c1ccc(F)cc1 [BC18539],> 10 µM
20,CCCCCSc1oc(-c2ccc(F)cc2)nc1S(=O)(=O)c1ccc(F)cc1 [BC18540],> 10 µM
21,CC(C)CSc1oc(-c2ccc(F)cc2)nc1S(=O)(=O)c1ccc(Cl)cc1 [BC18541],> 10 µM
22,CCCCS(=O)(=O)c1oc(-c2ccc(F)cc2)nc1S(=O)(=O)c1ccccc1 [BC18542],< 0.1 µM
23,CCCS(=O)(=O)c1oc(-c2ccc(F)cc2)nc1S(=O)(=O)c1ccc(F)cc1 [BC18543],< 0.1 µM

row,Structure (SMILES),IC50
1,CCCCS(=O)(=O)c1oc(-c2ccc(F)cc2)nc1S(=O)(=O)c1ccc(Cl)cc1 [BC18544],0.1 to 1 µM
2,CSc1oc(-c2ccccc2)nc1S(=O)(=O)c1ccc(F)cc1 [BC18545],1 to 10 µM
3,CC(C)Sc1oc(-c2ccccc2)nc1S(=O)(=O)c1ccc(Cl)cc1 [BC18546],1 to 10 µM
4,CCSc1oc(-c2ccc(C)cc2)nc1S(=O)(=O)c1ccc(Cl)cc1 [BC18547],> 10 µM
5,CC(C)Sc1oc(-c2ccc(F)cc2)nc1S(=O)(=O)c1ccccc1 [BC18548],1 to 10 µM
6,CSc1oc(-c2ccc(F)cc2)nc1S(=O)(=O)c1ccc(C)cc1 [BC18549],> 10 µM
7,CSc1oc(-c2ccc(F)cc2)nc1S(=O)(=O)c1ccc(F)cc1 [BC18550],> 10 µM
8,NC(=O)CSc1oc(-c2ccc(F)cc2)nc1S(=O)(=O)c1ccc(Cl)cc1 [BC18551],> 10 µM
9,CSc1oc(-c2ccc(F)cc2)nc1S(=O)(=O)c1ccc(Br)cc1 [BC18552],> 10 µM
10,CCC(C)S(=O)(=O)c1oc(-c2ccc(F)cc2)nc1S(=O)(=O)c1ccccc1 (stereo not shown) [BC18553],< 0.1 µM
11,CC(C)S(=O)(=O)c1oc(-c2ccc(F)cc2)nc1S(=O)(=O)c1ccc(F)cc1 [BC18554],< 0.1 µM
12,CC(C)CS(=O)(=O)c1oc(-c2ccc(F)cc2)nc1S(=O)(=O)c1ccc(Cl)cc1 [BC18555],< 0.1 µM
13,CCSc1oc(-c2ccccc2)nc1S(=O)(=O)c1ccc(F)cc1 [BC18556],1 to 10 µM
14,CCCCSc1oc(-c2ccccc2)nc1S(=O)(=O)c1ccc(Cl)cc1 [BC18557],1 to 10 µM
15,CCCSc1oc(-c2ccc(C)cc2)nc1S(=O)(=O)c1ccc(Cl)cc1 [BC18558],> 10 µM
16,CCCCSc1oc(-c2ccc(F)cc2)nc1S(=O)(=O)c1ccccc1 [BC18559],1 to 10 µM
17,CCSc1oc(-c2ccc(F)cc2)nc1S(=O)(=O)c1ccc(C)cc1 [BC18560],1 to 10 µM
18,CCSc1oc(-c2ccc(F)cc2)nc1S(=O)(=O)c1ccc(F)cc1 [BC18561],1 to 10 µM
19,CSc1oc(-c2ccc(F)cc2)nc1S(=O)(=O)c1ccc(Cl)cc1 [BC18562],> 10 µM
20,CCSc1oc(-c2ccc(F)cc2)nc1S(=O)(=O)c1ccc(Br)cc1 [BC18563],> 10 µM
21,O=S(=O)(Cc1ccccc1F)c1oc(-c2ccc(F)cc2)nc1S(=O)(=O)c1ccccc1 [BC18564],< 0.1 µM
22,CCCCS(=O)(=O)c1oc(-c2ccc(F)cc2)nc1S(=O)(=O)c1ccc(F)cc1 [BC18565],< 0.1 µM
23,CS(=O)(=O)c1oc(-c2ccc(F)cc2)nc1S(=O)(=O)c1ccc(Br)cc1 [BC18566],< 0.1 µM

row,Structure (SMILES),IC50
1,CCCSc1oc(-c2ccccc2)nc1S(=O)(=O)c1ccc(F)cc1 [BC18567],> 10 µM
2,CCC(C)Sc1oc(-c2ccccc2)nc1S(=O)(=O)c1ccc(Cl)cc1 (stereo not shown) [BC18568],1 to 10 µM
3,Cc1ccc(-c2nc(S(=O)(=O)c3ccc(Cl)cc3)c(SC(C)C)o2)cc1 [BC18569],1 to 10 µM
4,CCC(C)Sc1oc(-c2ccc(F)cc2)nc1S(=O)(=O)c1ccccc1 (stereo not shown) [BC18570],1 to 10 µM
5,CCCSc1oc(-c2ccc(F)cc2)nc1S(=O)(=O)c1ccc(C)cc1 [BC18571],1 to 10 µM
6,CCCSc1oc(-c2ccc(F)cc2)nc1S(=O)(=O)c1ccc(F)cc1 [BC18572],> 10 µM
7,CCSc1oc(-c2ccc(F)cc2)nc1S(=O)(=O)c1ccc(Cl)cc1 [BC18573],1 to 10 µM
8,CCCSc1oc(-c2ccc(F)cc2)nc1S(=O)(=O)c1ccc(Br)cc1 [BC18574],> 10 µM
9,CC(C)CS(=O)(=O)c1oc(-c2ccc(F)cc2)nc1S(=O)(=O)c1ccccc1 [BC18575],< 0.1 µM
10,CCC(C)S(=O)(=O)c1oc(-c2ccc(F)cc2)nc1S(=O)(=O)c1ccc(F)cc1 (stereo not shown) [BC18576],< 0.1 µM
11,CCS(=O)(=O)c1oc(-c2ccc(F)cc2)nc1S(=O)(=O)c1ccc(Br)cc1 [BC18577],< 0.1 µM
12,CC(C)CSc1oc(-c2ccccc2)nc1S(=O)(=O)c1ccc(F)cc1 [BC18578],1 to 10 µM
13,CC(C)CSc1oc(-c2ccccc2)nc1S(=O)(=O)c1ccc(Cl)cc1 [BC18579],1 to 10 µM
14,Cc1ccc(-c2nc(S(=O)(=O)c3ccc(Cl)cc3)c(SCC(C)C)o2)cc1 [BC18580],> 10 µM
15,O=S(=O)(c1ccccc1)c1nc(-c2ccc(F)cc2)oc1SCc1ccc(F)cc1 [BC18581],1 to 10 µM
16,Cc1ccc(S(=O)(=O)c2nc(-c3ccc(F)cc3)oc2SC(C)C)cc1 [BC18582],1 to 10 µM
17,CC(C)Sc1oc(-c2ccc(F)cc2)nc1S(=O)(=O)c1ccc(F)cc1 [BC18583],1 to 10 µM
18,CCCSc1oc(-c2ccc(F)cc2)nc1S(=O)(=O)c1ccc(Cl)cc1 [BC18584],> 10 µM
19,CC(C)Sc1oc(-c2ccc(F)cc2)nc1S(=O)(=O)c1ccc(Br)cc1 [BC18585],1 to 10 µM
20,Cc1ccc(S(=O)(=O)c2nc(-c3ccc(F)cc3)oc2S(=O)(=O)C(C)C)cc1 [BC18586],< 0.1 µM
21,CC(C)CS(=O)(=O)c1oc(-c2ccc(F)cc2)nc1S(=O)(=O)c1ccc(F)cc1 [BC18587],< 0.1 µM
22,CCCS(=O)(=O)c1oc(-c2ccc(F)cc2)nc1S(=O)(=O)c1ccc(Br)cc1 [BC18588],< 0.1 µM

# Same assay, conditions: THP1-NF-κB-LUC cells; compounds 2 hours before LPS (10 ng/mL) for 18 hours; secreted luciferase; read-out: IC50 (NF-κB assay)
row,Structure (SMILES),IC50
1,Cc1cc2c(cc1S(=O)(=O)Nc1ccc(CCC(=O)O)cc1)OCC(=O)N2 [BC181300],> 10 µM
2,COc1cc(NS(=O)(=O)c2cc3c(cc2C)NC(=O)CO3)cc(OC)c1 [BC181301],> 10 µM
3,CCOc1ccc(NS(=O)(=O)c2cc3c(cc2C)NC(=O)CO3)cc1 [BC181302],< 0.1 µM
4,CC(=O)c1cccc(NS(=O)(=O)c2cc3c(cc2C)NC(=O)CO3)c1 [BC181303],< 0.1 µM
5,CCCCN(c1ccccc1)S(=O)(=O)c1cc2c(cc1C)NC(=O)CO2 [BC181304],> 10 µM
6,Cc1ccc(NS(=O)(=O)c2cc3c(cc2C)NC(=O)CO3)cc1Cl [BC181305],< 0.1 µM
7,CC(=O)N1CCOc2cc(S(=O)(=O)Nc3ccc(Br)c(C)c3)c(C)cc21 [BC181306],1 to 10 µM
8,COc1cccc(NS(=O)(=O)c2cc3c(cc2C)N(C)CCO3)c1 [BC181308],> 10 µM
9,Cc1ccc(NS(=O)(=O)c2cc3c(cc2C)N(C)CCO3)cc1F [BC181309],> 10 µM
10,Cc1cc2c(cc1S(=O)(=O)Nc1ccccc1)OCC(=O)N2 [BC181310],< 0.1 µM

# Same assay, conditions: read-out: IC50 (NF-κB assay)
row,Structure (SMILES),IC50
1,COc1cc(NS(=O)(=O)c2cc3c(cc2C)N(C(C)=O)CCO3)cc(OC)c1 [BC181307],> 10 µM
